Read-outs that look alike come from different tables or passages of the source.
Key:
[1] = target: T1, His-p53 Y220C (94-294) protein (Homo sapiens, UniProt P04637, Y220C); test: In vitro DNA binding assay (HTRF); type: biochemical; details: % activation normalized to 2 μM Ref-1a high control
T1 construct: His-p53 Y220C (94-294) protein

NUGC3 (P53 Y220C) = test: Cell viability assay (CellTiter-Glo, 6 days), NUGC3; type: cell-based
Procedure, shortened: (§1)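 Cells seeded overnight at 37 °C, then exposed to compounds in medium for 6 days. Viability read by CellTiter-Glo luminescence, normalized to DMSO cell wells (high) and medium-only wells (low); IC50 taken as concentration giving 50% viability from 4-parameter logistic fit.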

NUGC4 (P53 WT) = test: Cell viability assay (CellTiter-Glo, 6 days), NUGC4; type: cell-based
Procedure, shortened: as §1

[2] = system: NUGC-3_P53_Luc single clonal cell line (p53 Y220C); test: Reporter gene assay (p53 RE luciferase); type: cell-based
Procedure, shortened: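 NUGC-3 cells stably carrying a p53 RE-driven luc2P reporter, washed free of phenol red, exposed to compound for 6 h at 37 °C; luminescence read. Activity normalised between DMSO (low) and Ref-1a 10 μM (high) controls; EC50 from 4-parameter logistic fit or Excel as concentration giving 50% activity.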

[3] = Homo sapiens, NUGC-3, 144 h, cell viability, 6 days, CellTiter-Glo, read-out: NUGC3 (P53 Y220C) IC50
[4] = Homo sapiens, NUGC-4, 144 h, cell viability, 6 days, CellTiter-Glo, read-out: NUGC4 (P53 WT) IC50
[5] = Homo sapiens, NUGC-3, 6 h, luciferase reporter, 6 hours, normalized to Ref-1a (10 μM) high control, read-out: p53(Y220C)_NUGC-3 EC50
[6] = Homo sapiens, NUGC-3, luciferase reporter, 6 hours, normalized to Ref-1a (10 μM) high control, read-out: p53(Y220C)_NUGC-3 EC50

EC50 [1]	Structure (SMILES)	IC50 (NUGC3 (P53 Y220C); [3])	IC50 (NUGC4 (P53 WT); [4])	EC50 [2, 5]	EC50 [2, 6]	IC50 (NUGC3 (P53 Y220C); Homo sapiens, NUGC-3, 144 h, read-out: NUGC3 (P53 Y220C) IC50 (μM))	IC50 (NUGC4 (P53 WT); Homo sapiens, NUGC-4, 144 h, read-out: NUGC4 (P53 WT) IC50 (μM))	EC50 ([2]; Homo sapiens, NUGC-3, 6 h, read-out: p53(Y220C)_NUGC-3 EC50 (μM))	IC50 (NUGC3 (P53 Y220C); cell viability, 6 days, CellTiter-Glo, read-out: NUGC3 (P53 Y220C) IC50)	IC50 (NUGC4 (P53 WT); cell viability, 6 days, CellTiter-Glo, read-out: NUGC4 (P53 WT) IC50)	EC50 ([2]; luciferase reporter, 6 hours, normalized to Ref-1a (10 μM) high control, read-out: p53(Y220C)_NUGC-3 EC50)
42 nM	CN1CC[C@@H](Nc2cccc3c(CC(F)(F)F)c(C#CCNc4ccc(P(C)(C)=O)cc4C(=O)NC4CC4)sc23)[C@@H](F)C1 [Example 215, N-cyclopropyl-5-(dimethylphosphoryl)-2-((3-(7-(((3S,4R)-3-fluoro-1-methylpiperidin-4-yl)amino)-3-(2,2,2-trifluoroethyl)benzo[b]thiophen-2-yl)prop-2-yn-1-yl)amino)benzamide]	0.37 µM	37.3 µM		0.14 µM						
53 nM	COc1cc(P(C)(C)=O)ccc1NCC#Cc1sc2c(NC3CCN(C)CC34CC4)cccc2c1CC(F)(F)F (centres unmarked) [Example 89, (3-methoxy-4-((3-(7-((5-methyl-5-azaspiro[2.5]octan-8-yl)amino)-3-(2,2,2-trifluoroethyl)benzo[b]thiophen-2-yl)prop-2-yn-1-yl)amino)phenyl)dimethylphosphine oxide]	0.82 µM	4.54 µM		0.23 µM						
41 nM	CNC(=O)c1cc(NCC#Cc2sc3c(N[C@@H]4CCN(C5CCOCC5)C[C@@H]4F)cccc3c2CC(F)(F)F)c(OC)cc1P(C)(C)=O [Example 160, 2-dimethylphosphoryl-5-[3-[7-[[(3S,4R)-3-fluoro-1-tetrahydropyran-4-yl-4-piperidyl]amino]-3-(2,2,2-trifluoroethyl)benzothiophen-2-yl]prop-2-ynylamino]-4-methoxy-N-methyl-benzamide]	1.41 µM	> 50 µM		0.19 µM						
48 nM	COc1cc(S(C)(=O)=O)ccc1NCC#Cc1cc2c(N[C@@H]3CCN(C)C[C@@H]3F)cccc2n1CC(F)(F)F [Ref-1a, N-((3S,4R)-3-fluoro-1-methylpiperidin-4-yl)-2-(3-((2-methoxy-4-(methylsulfonyl)phenyl)amino)prop-1-yn-1-yl)-1-(2,2,2-trifluoroethyl)-1H-indol-4-amine, reference compound]	0.54 µM	11 µM		0.05 µM						
143 nM	COc1cc(P(C)(C)=O)ccc1NCC#Cc1sc2c(NC3C4CCC3CN(C)C4)cccc2c1CC(F)(F)F (centres unmarked) [Example 124, (3-methoxy-4-((3-(7-((3-methyl-3-azabicyclo[3.2.1]octan-8-yl)amino)-3-(2,2,2-trifluoroethyl)benzo[b]thiophen-2-yl)prop-2-yn-1-yl)amino)phenyl)dimethylphosphine oxide]	2.31 µM	7.23 µM		0.47 µM						
82 nM	COc1cc(P(C)(C)=O)ccc1NCC#Cc1sc2c(N[C@@H]3CCN(C4CCCC4)C[C@@H]3F)cccc2c1CC(F)(F)F (relative stereo) [Example 104, (4-((3-(7-(((Z)-1-cyclopentyl-3-fluoropiperidin-4-yl)amino)-3-(2,2,2-trifluoroethyl)benzo[b]thiophen-2-yl)prop-2-yn-1-yl)amino)-3-methoxyphenyl)dimethylphosphine oxide]	1.38 µM	1.75 µM		0.24 µM						
48 nM	CN1CC[C@@H](Nc2cccc3c(CC(F)(F)F)c(C#CCOc4ccc(P(C)(C)=O)cc4C(N)=O)sc23)[C@@H](F)C1 [Example 165, 5-(dimethylphosphoryl)-2-((3-(7-(((3S,4R)-3-fluoro-1-methylpiperidin-4-yl)amino)-3-(2,2,2-trifluoroethyl)benzo[b]thiophen-2-yl)prop-2-yn-1-yl)oxy)benzamide]	20.5 µM	> 50 µM		4.22 µM						
64 nM	CNC(=O)c1ccc(NCC#Cc2sc3c(NC4CCN(C)CC4F)cccc3c2CC(F)(F)F)c(OC)n1 (centres unmarked) [Example 62, 5-((3-(7-(((Z)-3-fluoro-1-methylpiperidin-4-yl)amino)-3-(2,2,2-trifluoroethyl)benzo[b]thiophen-2-yl)prop-2-yn-1-yl)amino)-6-methoxy-N-methylpicolinamide]								1.43 µM	3.7 µM	0.34 µM
73 nM	CP(C)(=O)c1ccc(NCC#Cc2sc3c(N[C@@H]4CCN(C5CCOCC5)C[C@@H]4F)cccc3c2CC(F)(F)F)c(OC2CC2)c1 [Example 161, (3-cyclopropoxy-4-((3-(7-(((3S,4R)-3-fluoro-1-(tetrahydro-2H-pyran-4-yl)piperidin-4-yl)amino)-3-(2,2,2-trifluoroethyl)benzo[b]thiophen-2-yl)prop-2-yn-1-yl)amino)phenyl)dimethylphosphine oxide]	1.15 µM	12.9 µM		0.12 µM						
34 nM	COc1cc(N2CCOCC2=O)ccc1NCC#Cc1sc2c(NC3CCN(C)CC3F)cccc2c1CC(F)(F)F (centres unmarked) [Example 192, 4-(4-((3-(7-((3-fluoro-1-methylpiperidin-4-yl)amino)-3-(2,2,2-trifluoroethyl)benzo[b]thiophen-2-yl)prop-2-yn-1-yl)amino)-3-methoxyphenyl)morpholin-3-one]	1.19 µM	7.61 µM		0.13 µM						
48 nM	CN1CC[C@@H](Nc2cccc3c(CC(F)(F)F)c(C#CCNc4ccc(P(C)(C)=O)cc4C(=O)NC4CCOCC4)sc23)[C@@H](F)C1 [Example 216, 5-(dimethylphosphoryl)-2-((3-(7-(((3S,4R)-3-fluoro-1-methylpiperidin-4-yl)amino)-3-(2,2,2-trifluoroethyl)benzo[b]thiophen-2-yl)prop-2-yn-1-yl)amino)-N-(tetrahydro-2H-pyran-4-yl)benzamide]	0.27 µM	> 50 µM		0.12 µM						

Structure (SMILES)	EC50 [1]	IC50 (NUGC3 (P53 Y220C); [3])	IC50 (NUGC4 (P53 WT); [4])	EC50 [2, 5]	EC50 [2, 6]	IC50 (NUGC3 (P53 Y220C); Homo sapiens, NUGC-3, 144 h, read-out: NUGC3 (P53 Y220C) IC50 (μM))	IC50 (NUGC4 (P53 WT); Homo sapiens, NUGC-4, 144 h, read-out: NUGC4 (P53 WT) IC50 (μM))	EC50 ([2]; Homo sapiens, NUGC-3, 6 h, read-out: p53(Y220C)_NUGC-3 EC50 (μM))	IC50 (NUGC3 (P53 Y220C); cell viability, 6 days, CellTiter-Glo, read-out: NUGC3 (P53 Y220C) IC50)	IC50 (NUGC4 (P53 WT); cell viability, 6 days, CellTiter-Glo, read-out: NUGC4 (P53 WT) IC50)	EC50 ([2]; luciferase reporter, 6 hours, normalized to Ref-1a (10 μM) high control, read-out: p53(Y220C)_NUGC-3 EC50)
CN1CC[C@@H](Nc2cccc3c(CC(F)(F)F)c(C#CCNc4ccc(P(C)(C)=O)cc4C#N)sc23)[C@@H](F)C1 [Example 211, 5-(dimethylphosphoryl)-2-((3-(7-(((3S,4R)-3-fluoro-1-methylpiperidin-4-yl)amino)-3-(2,2,2-trifluoroethyl)benzo[b]thiophen-2-yl)prop-2-yn-1-yl)amino)benzonitrile]	52 nM	1.07 µM	11.3 µM	0.22 µM							
COCCNC(=O)c1cc(P(C)(C)=O)ccc1NCC#Cc1sc2c(N[C@@H]3CCN(C)C[C@@H]3Cl)cccc2c1CC(F)(F)F [Example 219, 2-((3-(7-(((3S,4R)-3-chloro-1-methylpiperidin-4-yl)amino)-3-(2,2,2-trifluoroethyl)benzo[b]thiophen-2-yl)prop-2-yn-1-yl)amino)-5-(dimethylphosphoryl)-N-(2-methoxyethyl)benzamide]	45 nM					0.36 µM	19.5 µM	0.09 µM			
COc1cc(P(C)(C)=O)ccc1NCC#Cc1sc2c(N[C@@H]3CCN(C)C[C@@H]3F)cccc2c1CC(F)(F)F [Example 115, (4-((3-(7-(((3S,4R)-3-fluoro-1-methylpiperidin-4-yl)amino)-3-(2,2,2-trifluoroethyl)benzo[b]thiophen-2-yl)prop-2-yn-1-yl)amino)-3-methoxyphenyl)dimethylphosphine oxide]	23 nM	0.24 µM	8.58 µM	0.03 µM							
COc1cc(P(C)(C)=O)ccc1NCC#Cc1sc2c(N[C@@H]3CCN(C4CCN(C)CC4)C[C@@H]3F)cccc2c1CC(F)(F)F (racemic) [Example 72, (Z)-(4-((3-(7-((3-fluoro-1′-methyl-[1,4′-bipiperidin]-4-yl)amino)-3-(2,2,2-trifluoroethyl)benzo[b]thiophen-2-yl)prop-2-yn-1-yl)amino)-3-methoxyphenyl)dimethylphosphine oxide]	41 nM	0.43 µM	4.43 µM	0.21 µM							
COc1cc(P(C)(C)=O)ccc1NCC#Cc1sc2c(N[C@@H]3CCN(C)C[C@H]3C)cccc2c1CC(F)(F)F [Example 128, (4-((3-(7-(((3R,4R)-1,3-dimethylpiperidin-4-yl)amino)-3-(2,2,2-trifluoroethyl)benzo[b]thiophen-2-yl)prop-2-yn-1-yl)amino)-3-methoxyphenyl)dimethylphosphine oxide]	53 nM	0.87 µM	2.26 µM	0.1 µM							
CNC(=O)c1ccc(NCC#Cc2cc3c(N[C@@H]4CCN(C)C[C@@H]4F)cccc3n2CC(F)(F)F)c(OC)c1 [Example 110, 4-((3-(4-(((3S,4R)-3-fluoro-1-methylpiperidin-4-yl)amino)-1-(2,2,2-trifluoroethyl)-1H-indol-2-yl)prop-2-yn-1-yl)amino)-3-methoxy-N-methylbenzamide]	27 nM	1.02 µM	14.2 µM	0.04 µM							
